{"source": "patent US20110189675A1", "about": "“Method For Administering Anticoagulation Therapy” (Marshfield Clinic, priority 2007, published 2011)", "key": {"[1]": {"test": "Stable therapeutic warfarin dose by CYP2C9, VKORC1 and rs2108622 (CYP4F2) genotype, 424 subjects", "type": "in vivo, human", "from_the_text": "The initial cohort was recruited at Marshfield Clinic, a multi-specialty group practice in Wisconsin as described.^6, 16 Patients were excluded from the study if they were known to have cancer, renal or hepatic insufficiency, or congestive heart failure.\nThe targeted human DMET 1.0 assay (Affymetrix, Inc, Santa Clara, Calif.) utilizes molecular inversion probes and GeneChip universal tag arrays to target 1228 single nucleotide polymorphisms (SNP) within 170 genes for metabolic enzymes and transport and regulatory proteins (Table 2).\nThe laboratory protocol followed the standard process described in the Targeted Genotyping System User Guide^25 except for a preliminary polymerase chain reaction (PCR)-amplification step aimed at resolving genotypes from 29 SNPs in regions containing pseudogenes and close homologues. GeneChip Targeted Genotyping Analysis software was used to make genotype calls and generate QC metrics including call rates, average signal, cluster quality, Hardy-Weinberg equilibrium, and reproducibility. […] Genotypes represented by the remaining 1217 SNP assays were called according to either predefined boundaries (derived from historical training sets) or dynamic clustering using the current data set. […] The remaining polymorphisms target rare mutations or SNPs prevalent in other racial groups.\nVKORC1 genotypes were determined on 436 Marshfield Clinic samples as described^6 and on the remaining 61 samples using Invader® chemistry in a laboratory test developed with analyte specific reagents manufactured by Third Wave Technologies (TWT, Madison, Wis.). The laboratory developed assay used analyte-specific reagents that detect CYP2C9*2, CYP2C9*3, and VKORC1 (position −1639).^26"}, "[2]": {"test": "Pooled regression models of stable warfarin dose versus CYP4F2 rs2108622 genotype, three Caucasian cohorts", "type": "in vivo, human", "from_the_text": "Therefore, we conducted multiple regression analyses only on the *1 genotypes (n=1009), and used the observed mean dose (log scale) as the predicted value for those with only non-wild CYP2C9 alleles (*2/*2, *2/*3, and *3/*3, n=42). Accordingly, our models that include genetic variables are composites of multiple regression and simple mean-based estimation approaches.\nTo assess the relative contribution of clinical and genetic factors, three models were developed using different sets of potential predictor variables: clinical factors only (gender, age, body surface area, and target international normalized ratio), clinical factors plus CYP2C9 and VKORC1, and clinical factors CYP2C9, VKORC1, and rs2108622. A modified step-down approach^29 was used, starting with a “full” model which included all potential predictors pertinent to that model, effects to allow the three study sites to differ, two-factor interactions (including those by site), and quadratic terms for age, body surface area, and target international normalized ratio. […] The regression models were finalized after evaluating residuals and excluding cases with large residuals as outliers (|Studentized Residual|>3).\nThe explanatory power for the three final models was assessed graphically and by using the adjusted r-squared (R^2adj). The R^2adj statistic measures the proportion of the total variability explained by the model with adjustment for the number of parameters in the model. The statistic was directly calculated to use all cases under analysis by pooling across both parts of the composite models and by applying the final regression model to any outliers dropped when estimating the parameters in the regression models."}}}
{"molecule": "CC(=O)CC(c1ccccc1)c1c(O)c2ccccc2oc1=O", "note": "(stereo not shown) [warfarin]", "values": [{"measurement": "Geometric Mean warfarin dose", "setting": "[1]; CYP2C9 *1/*1, VKORC1 CC, rs2108622 CC, N=13", "result": 20.0, "unit": "mg/week"}, {"measurement": "Geometric Mean warfarin dose", "setting": "[1]; CYP2C9 *1/*1, VKORC1 CC, rs2108622 CT, N=18", "result": 21.1, "unit": "mg/week"}, {"measurement": "Geometric Mean warfarin dose", "setting": "[1]; CYP2C9 *1/*1, VKORC1 CC, rs2108622 TT, N=2", "result": 34.5, "unit": "mg/week"}, {"measurement": "Geometric Mean warfarin dose", "setting": "[1]; CYP2C9 *1/*1, VKORC1 CG, rs2108622 CC, N=68", "result": 29.6, "unit": "mg/week"}, {"measurement": "Geometric Mean warfarin dose", "setting": "[1]; CYP2C9 *1/*1, VKORC1 CG, rs2108622 CT, N=46", "result": 31.9, "unit": "mg/week"}, {"measurement": "Geometric Mean warfarin dose", "setting": "[1]; CYP2C9 *1/*1, VKORC1 CG, rs2108622 TT, N=12", "result": 37.9, "unit": "mg/week"}, {"measurement": "Geometric Mean warfarin dose", "setting": "[1]; CYP2C9 *1/*1, VKORC1 GG, rs2108622 CC, N=64", "result": 39.5, "unit": "mg/week"}, {"measurement": "Geometric Mean warfarin dose", "setting": "[1]; CYP2C9 *1/*1, VKORC1 GG, rs2108622 CT, N=41", "result": 45.1, "unit": "mg/week"}, {"measurement": "Geometric Mean warfarin dose", "setting": "[1]; CYP2C9 *1/*1, VKORC1 GG, rs2108622 TT, N=8", "result": 47.3, "unit": "mg/week"}, {"measurement": "Geometric Mean warfarin dose", "setting": "[1]; CYP2C9 *1/*2, VKORC1 CC, rs2108622 CC, N=3", "result": 16.6, "unit": "mg/week"}, {"measurement": "Geometric Mean warfarin dose", "setting": "[1]; CYP2C9 *1/*2, VKORC1 CC, rs2108622 CT, N=5", "result": 19.6, "unit": "mg/week"}, {"measurement": "Geometric Mean warfarin dose", "setting": "[1]; CYP2C9 *1/*2, VKORC1 CC, rs2108622 TT, N=1", "result": 17.5, "unit": "mg/week"}, {"measurement": "Geometric Mean warfarin dose", "setting": "[1]; CYP2C9 *1/*2, VKORC1 CG, rs2108622 TT, N=5", "result": 31.0, "unit": "mg/week"}, {"measurement": "Geometric Mean warfarin dose", "setting": "[1]; CYP2C9 *1/*2, VKORC1 GG, rs2108622 CC, N=13", "result": 29.7, "unit": "mg/week"}, {"measurement": "Geometric Mean warfarin dose", "setting": "[1]; CYP2C9 *1/*2, VKORC1 GG, rs2108622 CT, N=17", "result": 34.1, "unit": "mg/week"}, {"measurement": "Geometric Mean warfarin dose", "setting": "[1]; CYP2C9 *1/*3, VKORC1 CC, rs2108622 CT, N=2", "result": 21.3, "unit": "mg/week"}, {"measurement": "Geometric Mean warfarin dose", "setting": "[1]; CYP2C9 *1/*3, VKORC1 CG, rs2108622 CC, N=13", "result": 21.5, "unit": "mg/week"}, {"measurement": "Geometric Mean warfarin dose", "setting": "[1]; CYP2C9 *1/*3, VKORC1 GG, rs2108622 CC, N=5", "result": 22.3, "unit": "mg/week"}, {"measurement": "Geometric Mean warfarin dose", "setting": "[1]; CYP2C9 *1/*3, VKORC1 GG, rs2108622 TT, N=3", "result": 34.5, "unit": "mg/week"}, {"measurement": "Geometric Mean warfarin dose", "setting": "[1]; CYP2C9 *2/*2, VKORC1 CG, rs2108622 CC, N=1", "result": 22.0, "unit": "mg/week"}, {"measurement": "Geometric Mean warfarin dose", "setting": "[1]; CYP2C9 *2/*2, VKORC1 CG, rs2108622 CT, N=1", "result": 28.0, "unit": "mg/week"}, {"measurement": "Geometric Mean warfarin dose", "setting": "[1]; CYP2C9 *2/*2, VKORC1 CG, rs2108622 TT, N=1", "result": 35.0, "unit": "mg/week"}, {"measurement": "Geometric Mean warfarin dose", "setting": "[1]; CYP2C9 *2/*2, VKORC1 GG, rs2108622 CC, N=1", "result": 18.5, "unit": "mg/week"}, {"measurement": "Geometric Mean warfarin dose", "setting": "[1]; CYP2C9 *2/*2, VKORC1 GG, rs2108622 CT, N=1", "result": 37.5, "unit": "mg/week"}, {"measurement": "Geometric Mean warfarin dose", "setting": "[1]; CYP2C9 *2/*2, VKORC1 GG, rs2108622 TT, N=1", "result": 35.0, "unit": "mg/week"}, {"measurement": "Geometric Mean warfarin dose", "setting": "[1]; CYP2C9 *2/*3, VKORC1 CC, rs2108622 CC, N=1", "result": 20.0, "unit": "mg/week"}, {"measurement": "Geometric Mean warfarin dose", "setting": "[1]; CYP2C9 *2/*3, VKORC1 CG, rs2108622 CT, N=1", "result": 22.5, "unit": "mg/week"}, {"measurement": "Geometric Mean warfarin dose", "setting": "[1]; CYP2C9 *2/*3, VKORC1 CG, rs2108622 TT, N=1", "result": 15.0, "unit": "mg/week"}, {"measurement": "Geometric Mean warfarin dose", "setting": "[1]; CYP2C9 *2/*3, VKORC1 GG, rs2108622 CC, N=3", "result": 15.3, "unit": "mg/week"}, {"measurement": "Geometric Mean warfarin dose", "setting": "[1]; CYP2C9 *3/*3, VKORC1 CG, rs2108622 CC, N=1", "result": 6.5, "unit": "mg/week"}, {"measurement": "Geometric Mean warfarin dose", "setting": "[1]; CYP2C9 *3/*3, VKORC1 CG, rs2108622 CT, N=1", "result": 4.5, "unit": "mg/week"}, {"measurement": "increase in warfarin dose with each T allele (CYP4F2 effect, final pooled model)", "setting": "[2]; Marshfield", "result": 12.8, "unit": "%"}, {"measurement": "absolute contribution of CYP4F2 to stable warfarin dose", "setting": "[2]; Marshfield cohort", "result": 26, "unit": "%"}, {"measurement": "increase in warfarin dose with each T allele (CYP4F2 effect, final pooled model)", "setting": "[2]; University of Florida", "result": 6.8, "unit": "%"}, {"measurement": "increase in warfarin dose with each T allele (CYP4F2 effect, final pooled model)", "setting": "[2]; Washington University in St. Louis", "result": 3.8, "unit": "%"}, {"measurement": "absolute contribution of CYP4F2 to stable warfarin dose", "setting": "[2]; Washington University in St. Louis cohort", "result": 8, "unit": "%"}, {"measurement": "difference in warfarin dose requirement, two TT alleles versus two CC alleles of CYP4F2 rs2108622", "setting": "[2]; pooled analyses, three Caucasian cohorts stabilized on warfarin", "result": "about 1 mg/day"}]}
